Measurements taken from patent publication US12503503B2, “Bispecific anti-VEGF/ANG2 antibody formulation” (Hoffmann-La Roche Inc., priority 2018, dated 2025).
Read-outs that look alike come from different tables or passages of the source.

How the values were obtained:
[1] = tested on: cynomolgus monkeys; conditions: 14 days apart
Procedure: A toxicity study in cynomolgus monkeys was conducted in which methionine (10 mM) was a component of the vehicle and of the formulated test article CrossMAb VEGFang2-0016 (faricimab). In this study, a total of 12 animals (6 males/6 females) were treated intravitreal with 50 μL/eye two times, 14 days apart. The left eyes were treated with the vehicle (containing 10 mM methionine) and the right eyes were treated with the formulated test article CrossMAb VEGFang2-0016 (faricimab), also containing 10 mM methionine.
(§1) Three studies (in cynomolgus monkeys and in New Zealand White rabbits) were conducted in which methionine (5-25 mM) was a component of the vehicle, administered intravitreally (also 50 μL/eye) up to six times, 14 days apart.

[2] = tested on: New Zealand White rabbits; conditions: methionine (5-25 mM) in vehicle, intravitreal 50 μL/eye up to six times, 14 days apart
Procedure: as §1

[3] = target: TIE2 (Homo sapiens, UniProt Q02763); conditions: Maisonpierre et al., Science 277 (1997); read-out: affinity to TIE2 (Kd); cited from earlier work
Sequence of TIE2 (Q02763 23-1124, species assumed): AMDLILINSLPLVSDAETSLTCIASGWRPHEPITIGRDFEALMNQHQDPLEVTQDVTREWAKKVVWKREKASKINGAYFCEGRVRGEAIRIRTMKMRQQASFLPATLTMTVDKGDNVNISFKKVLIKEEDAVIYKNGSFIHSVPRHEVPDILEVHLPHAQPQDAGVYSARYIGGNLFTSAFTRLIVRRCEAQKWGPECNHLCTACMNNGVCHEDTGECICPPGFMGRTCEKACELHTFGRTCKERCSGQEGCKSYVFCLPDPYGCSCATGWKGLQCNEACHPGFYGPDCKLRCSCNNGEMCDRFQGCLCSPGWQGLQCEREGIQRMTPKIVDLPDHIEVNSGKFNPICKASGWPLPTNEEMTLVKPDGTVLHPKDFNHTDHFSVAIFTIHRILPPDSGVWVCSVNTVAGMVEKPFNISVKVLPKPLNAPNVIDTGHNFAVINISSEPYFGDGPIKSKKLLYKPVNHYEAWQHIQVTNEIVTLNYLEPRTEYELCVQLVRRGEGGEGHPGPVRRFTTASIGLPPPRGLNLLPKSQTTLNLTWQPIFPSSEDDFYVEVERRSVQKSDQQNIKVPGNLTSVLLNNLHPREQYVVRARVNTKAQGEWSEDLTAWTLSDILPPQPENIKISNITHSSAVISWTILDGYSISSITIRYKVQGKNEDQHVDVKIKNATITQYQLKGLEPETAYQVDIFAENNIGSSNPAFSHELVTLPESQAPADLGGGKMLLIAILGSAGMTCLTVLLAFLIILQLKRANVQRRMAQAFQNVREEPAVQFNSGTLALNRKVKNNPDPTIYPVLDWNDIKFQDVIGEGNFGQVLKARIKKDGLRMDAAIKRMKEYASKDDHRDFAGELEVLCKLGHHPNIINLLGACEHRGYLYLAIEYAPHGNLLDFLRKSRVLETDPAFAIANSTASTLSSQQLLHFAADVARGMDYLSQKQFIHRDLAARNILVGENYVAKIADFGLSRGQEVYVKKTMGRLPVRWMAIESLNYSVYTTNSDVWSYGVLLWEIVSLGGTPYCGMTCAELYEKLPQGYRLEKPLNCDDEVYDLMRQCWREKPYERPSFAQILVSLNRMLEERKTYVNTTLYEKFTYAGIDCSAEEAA

| Molecule | ocular effects of methionine ([1]; 10 mM methionine in vehicle and formulated faricimab, intravitreal 50 μL/eye two times) | ocular effects of methionine ([1]; methionine (5-25 mM) in vehicle, intravitreal 50 μL/eye up to six times) | ocular effects of methionine [2] | Kd [3] |
| --- | --- | --- | --- | --- |
| CSCC[C@H](N)C(=O)O [methionine] | no ocular effects | no ocular effects | no ocular effects |  |
| Ang-1: angiopoietin-1, ligand of TIE2 (protein, UniProt Q15389 16-498, looked up) Angiopoietin-1: HIGCSNQRRSPENSGRRYNRIQHGQCAYTFILPEHDGNCRESTTDQYNTNALQRDAPHVEPDFSSQKLQHLEHVMENYTQWLQKLENYIVENMKSEMAQIQQNAVQNHTATMLEIGTSLLSQTAEQTRKLTDVETQVLNQTSRLEIQLLENSLSTYKLEKQLLQQTNEILKIHEKNSLLEHKILEMEGKHKEELDTLKEEKENLQGLVTRQTYIIQELEKQLNRATTNNSVLQKQQLELMDTVHNLVNLCTKEGVLLKGGKREEEKPFRDCADVYQAGFNKSGIYTIYINNMPEPKKVFCNMDVNGGGWTVIQHREDGSLDFQRGWKEYKMGFGNPSGEYWLGNEFIFAITSQRQYMLRIELMDWEGNRAYSQYDRFHIGNEKQNYRLYLKGHTGTAGKQSSLILHGADFSTKDADNDNCMCKCALMLTGGWWFDACGPSNLNGMFYTAGQNHGKLNGIKWHYFKGPSYSLRSTTMMIRPLDF |  |  |  | 3 nM |
